# In PMC3150407, “Differential Inhibitor Sensitivity between Human Kinases VRK1 and VRK2” (PLoS ONE, 2011):
# “Also recorded” adds a separate entry of the source. Where a name gives a salt, the structure may show the parent alone.
# How the values were obtained:
# CHK2 = conditions: Table S1, known target value; no reference given; read-out: Kinase target (IC50) CHK2; cited from earlier work
# GST-VRK2A [1] = target: T1, GST-VRK2A (Homo sapiens, UniProt Q86Y07); assay: In vitro kinase assay, GST-VRK2A autophosphorylation; format: biochemical; conditions: for IC50: read-out: IC50 (µM) GST-VRK2A Auto-phosphorylation
# T1 construct: a full-length protein of 508 aminoacids (known as VRK2 and VRK2A); made in house; host or cells: E. coli BL21
# GST-VRK1 [2] = target: T2, GST-VRK1 (Homo sapiens, UniProt Q99986); assay: In vitro kinase assay, GST-VRK1 phosphorylation of histone H3; format: biochemical; conditions: 5 µM ATP; average of three experiments, ± standard deviation; No inhibition is lack of effect at 100 µM
# T2 construct: made in house
# T2 sequence (Q99986 1-396): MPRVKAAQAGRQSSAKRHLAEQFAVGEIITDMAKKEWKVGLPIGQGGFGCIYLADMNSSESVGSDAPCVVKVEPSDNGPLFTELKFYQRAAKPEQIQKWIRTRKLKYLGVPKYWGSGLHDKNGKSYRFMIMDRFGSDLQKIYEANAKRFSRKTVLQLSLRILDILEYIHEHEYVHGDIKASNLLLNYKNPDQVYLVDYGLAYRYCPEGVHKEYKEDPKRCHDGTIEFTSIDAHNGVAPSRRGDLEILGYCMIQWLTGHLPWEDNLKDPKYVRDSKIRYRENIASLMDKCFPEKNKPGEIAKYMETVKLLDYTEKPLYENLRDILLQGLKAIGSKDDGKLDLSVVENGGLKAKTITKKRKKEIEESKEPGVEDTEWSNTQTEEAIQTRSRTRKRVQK
# GST-VRK2A [3] = target: T1, GST-VRK2A; assay: In vitro kinase assay, GST-VRK2A phosphorylation of histone H3; format: biochemical
# VRK2A = target: T3, VRK2A (Homo sapiens, UniProt Q86Y07); assay: In vitro kinase assay, VRK2A kinase activity (autophosphorylation and H3 phosphorylation); format: biochemical; conditions: for IC50 / Effect on VRK2 (VRK2A) kinase activity at 100 µM inhibitor (in words): 5 µM ATP; for IC50: H3 phosphorylation or autophosphorylation, read-out: Concentration giving fifty percent inhibition of VRK2A activity; for Effect on VRK2 (VRK2A) kinase activity at 100 µM inhibitor (in words): inhibitor 100 µM, autophosphorylation and H3 phosphorylation
# T3 construct: a full-length protein of 508 aminoacids (known as VRK2 and VRK2A); made in house; host or cells: E. coli BL21
# GST-VRK1 [4] = target: T2, GST-VRK1; assay: In vitro kinase assay, GST-VRK1 autophosphorylation; format: biochemical; conditions: 5 µM ATP, average of three experiments, ± standard deviation, No inhibition is lack of effect at 100 µM; for IC50: read-out: IC50 (µM) GST-VRK1 Auto- phosphorylation
# MSK1 = conditions: Table S1, known target value; no reference given; read-out: Kinase target (IC50) MSK1; cited from earlier work
# CK1 = conditions: read-out: Concentration inhibiting CK1; cited from earlier work
# [5] = target: vaccinia virus B1R kinase (Vaccinia virus, UniProt P16913); format: biochemical; conditions: p53 and histone H3 as substrates, ATP 5 µM
# S6K = conditions: Table S1, known target value; no reference given; read-out: Kinase target (IC50) S6K; cited from earlier work
# DNA-PKcs = conditions: Table S1, known target value; no reference given; read-out: Kinase target (IC50) DNA-PKcs; cited from earlier work
# human VRK1 = target: T4, human VRK1 (Homo sapiens, UniProt Q99986); assay: In vitro kinase assay, VRK1 kinase activity (autophosphorylation and H3 phosphorylation); format: biochemical; conditions: for Effect on VRK1 kinase activity at 100 µM inhibitor (in words): inhibitor 100 µM, 5 µM ATP, autophosphorylation and H3 phosphorylation
# T4 construct: made in house
# T4 sequence (Q99986 1-396): T2 sequence (Q99986 1-396)
# ATM = conditions: Table S1, known target value; no reference given; read-out: Kinase target (IC50) ATM; cited from earlier work
# DNA-PK = conditions: Table S1, known target value; no reference given; read-out: Kinase target (IC50) DNA-PK; cited from earlier work
# Mek1 = conditions: Table S1, known target value; no reference given; read-out: Kinase target (IC50) Mek1; cited from earlier work
# LCK = conditions: read-out: Kinase target (IC50) LCK; Table S1, known target value; no reference given; cited from earlier work
# FYN = conditions: read-out: Kinase target (IC50) FYN; Table S1, known target value; no reference given; cited from earlier work
# CK1δ = conditions: read-out: Kinase target (IC50) CK1δ; Table S1, known target value; no reference given; cited from earlier work
# PKC isoforms = conditions: read-out: Reported fifty percent inhibition of PKC isoforms; cited from earlier work
# GSK-3β = conditions: Table S1, known target value; no reference given; read-out: Kinase target (IC50) GSK-3β; cited from earlier work
# [6] = 5 µM ATP, average of three experiments, ± standard deviation, No inhibition is lack of effect at 100 µM
SMILES,IC50 (µM) GST-VRK1 H3 phosphorylation (GST-VRK1 [2]),IC50 (µM) GST-VRK1 Auto- phosphorylation (GST-VRK1 [4]),Sensitivity of vaccinia virus B1R kinase to inhibitor (in words) [5],IC50 (µM) GST-VRK2A Auto-phosphorylation (GST-VRK2A [1]; [6]),Effect on VRK1 kinase activity at 100 µM inhibitor (in words) (human VRK1),IC50 (µM) GST-VRK2A H3 phosphorylation (GST-VRK2A [3]; [6]),Effect on VRK2 (VRK2A) kinase activity at 100 µM inhibitor (in words) (VRK2A),also measured
"NC(=O)Nc1cc(-c2cccc(F)c2)sc1C(=O)N[C@H]1CCCNC1 [AZD7762, 5-(3-Fluorophenyl)-3-ureidothiophene-N-[(S)-piperidin-3-yl]-2-carboxamide]",No inhibition,No inhibition,–,–,–,–,–,IC50 (CHK2): < 0.01 µM; IC50 (GST-VRK2A [1]): 40 ± 1.07 µM; IC50 (GST-VRK2A [3]): 24.4 ± 1.07 µM; IC50 (VRK2A): 30 µM
COc1cc(OC)c(C=C2C(=O)Nc3ccccc32)c(OC)c1 [IC261],–,–,not,–,–,–,–,IC50 (MSK1): 6 µM; IC50 (GST-VRK2A [1]; [6]): 11.1 ± 1.1 µM; IC50 (CK1): 6 µM; IC50 (GST-VRK1 [2]): 55.9 ± 1.04 µM; IC50 (GST-VRK2A [3]; [6]): 14.7 ± 1.13 µM; IC50 (VRK2A): 10 µM; IC50 (GST-VRK1 [4]): 121.4 ± 1.05 µM; IC50 (S6K): 6 µM
"CC(=O)c1ccc(N2CCOCC2)cc1O [IC86621, 1-(2-Hydroxy-4-morpholin-4-yl-phenyl)ethanone]",No inhibition,No inhibition,–,No inhibition,no noticeable effect,No inhibition,no noticeable effect,IC50 (DNA-PKcs): 0.1 µM
"O=c1cc(-c2cccc3c2Sc2ccccc2S3)oc(N2CCOCC2)c1 [KU55933, 2-(4-Morpholinyl)-6-(1-thianthrenyl)-4H-pyran-4-one]",No inhibition,No inhibition,sensitive,No inhibition,no noticeable effect,No inhibition,no noticeable effect,IC50 (ATM): […]
"O=c1cc(N2CCOCC2)oc2c1ccc1ccccc12 [NU7026, 2-(Morpholin-4-yl)-benzo[h]chomen-4-one]",No inhibition,No inhibition,–,No inhibition,no noticeable effect,No inhibition,no noticeable effect,IC50 (DNA-PK): 0.23 µM
"COc1cccc(-c2cc(=O)c3ccccc3o2)c1N [PD98059, 2’-Amino-3’-methoxyflavone]",No inhibition,No inhibition,–,No inhibition,None of them was able to induce a significant inhibition,No inhibition,None of them was able to induce a significant inhibition,IC50 (Mek1): […]
"Cc1ccc(-c2nn(C(C)(C)C)c3ncnc(N)c23)cc1 [PP1, 4-amino-5-(4-methylphenyl)-7-(t-butyl)pyrazolo-d-3,4-pyridine]",No inhibition,No inhibition,–,No inhibition,no effect,No inhibition,no effect,IC50 (LCK): […]; IC50 (FYN): […]; IC50 (CK1δ): 1 µM
"Cn1cc(C2=C(c3cn(CCCSC(=N)N)c4ccccc34)C(=O)NC2=O)c2ccccc21 [RO 31–8220, 2-(1-[3-(Amidinothio)propyl]-1H-indol-3-yl)-3-methanosulfonate salt]",–,–,sensitive,–,–,–,–,IC50 (GST-VRK2A [1]; [6]): 31.8 ± 1.15 µM; IC50 (GST-VRK1 [2]): 34.4 ± 1.05 µM; IC50 (PKC isoforms): 0.005 to 0.027 µM; IC50 (GST-VRK2A [3]; [6]): 33.6 ± 1.04 µM; IC50 (GST-VRK1 [4]): 11.1 ± 1.16 µM
"CC[C@H](CO)Nc1nc(NCc2ccccc2)c2ncn(C(C)C)c2n1 [Roscovitine, 2-(R)-(1-Ethyl-2-hydroxyethylamino)-6-benzylamino-9-isopropylpurine]",No inhibition,No inhibition,–,–,–,–,–,Effect on VRK1 kinase activity at 250 µM inhibitor (in words) (human VRK1; inhibitor 250 µM): some noticeable effect
"C[S+]([O-])c1ccc(-c2nc(-c3ccc(F)cc3)c(-c3ccncc3)[nH]2)cc1 (stereo not shown) [SB203580, 4-(4-Fluorophenyl)-2-(4-methylsulfinylphenyl)-5-(4-pyridyl)-1H-imidazole]",No inhibition,No inhibition,–,–,None of them was able to induce a significant inhibition,–,None of them was able to induce a significant inhibition,–
"CN[C@@H]1C[C@H]2O[C@@](C)([C@@H]1OC)n1c3ccccc3c3c4c(c5c6ccccc6n2c5c31)C(=O)NC4 [Staurosporine, (9S,10R,11R,13R)-2,3,10,11,12,13-Hexahydro-10-methoxy-9-methyl-11-(methylamino)-9,13-epoxy-1H,9H-diindolo[1,2,3-gh:3',2',1'-lm]pyrrolo[3,4-j][1,7]benzodiazonin-1-one]",–,–,sensitive,–,–,–,–,"Inhibition of VRK2A activity, concentration series (in words) (VRK2A; Fig. 3D, concentration not given): not inhibited"
"Cn1sc(=O)n(Cc2ccccc2)c1=O [TDZD-8, 4-benzil-2methyl-1,2,4-thiodiazolidine-3,5-dione]",Inhibition at 7.5 µM,Inhibition at 7.5 µM,–,No inhibition,more sensitive,No inhibition,–,"Effect on VRK1 kinase activity at 5 µM inhibitor (in words) (human VRK1; inhibitor 5 µM, autophosphorylation or H3 phosphorylation): no significant inhibition; Effect on VRK1 kinase activity at 7.5 µM inhibitor (in words) (human VRK1; inhibitor 7.5 µM, autophosphorylation or H3 phosphorylation): almost completely inhibited; IC50 (GSK-3β): 2 µM; Effect on VRK2A kinase activity at 500 µM inhibitor (in words) (VRK2A; inhibitor 500 µM (not shown)): insensitive"
"O=c1nc(NCc2ccccc2)s[nH]1 [TDZD-20, 5-Benzylamino-3-oxo-2,3-dyhidro-1,2-4-thiadiazole]",No inhibition,No inhibition,–,No inhibition,not able to inhibit,No inhibition,insensitive; also recorded: not able to inhibit,"Effect on VRK1 kinase activity at concentrations similar to those of TDZD-8 (in words) (human VRK1; similar concentrations (5 to 7.5 µM), Fig. S2B): no effect; IC50 (GSK-3β): 6.5 µM"
